In US20100240764A1, “Use of S-Clenbuterol” (EUCRO EUROPEAN CONTRACT RESEARCH GMBH & CO. KG, priority 2005, published 2010):

Assays:
hippocampal neurons [1] = assay: Glutamate-induced excitotoxic cell death in cultured hippocampal neurons, trypan blue exclusion; format: cell-based, rat; conditions: 10 μM, glutamate 500 μM for 1 h; for protection of neurons against glutamate excitotoxic insult: trypan blue-stained cultures 18 h after exposure (FIG. 2)
Protocol: (§1) Neuronal cultures. Mixed primary cultures of hippocampal neurons and glial cells were prepared from neonatal Fischer 344 rats as described in Brain Research 1717 (1996) 44-54. Experiments were carried out after 10 days in culture. The NMDA antagonist memantine (Merz, Germany) and clenbuterol were applied 1 h or 5 h before exposure of the cells to glutamate (500 μmol/L, 1 h), respectively. For induction of excitotoxic cell death, medium (conditioned medium) was collected and glutamate-containing medium was added, and then exchanged again after 1 h by the conditioned ? enantiomeres were present in the culture medium also during and after exposure to glutamate. For induction of apoptosis, neurons were exposed to staurosporine (STS, 200 nmol/L, Sigma) […]. Cell death was determined by the trypan blue exclusion method or after staining the nuclei with the DNA-binding fluorochrom Hoechst 33258 as in Brain Research 1717 (1996) 44-54 and in STROKE 2004, 35: 1197-1202.
The protective effects of the clenbuterol enantiomers in cultured neurons exposed to STS (200 nM) which induced apoptosis or glutamate (500 μM) which induced ecitotoxic cell death with morphological features of necrosis. The Clenbuterol enantiomeres were added to the culture medium at a concentration of 10 μM h before the onset of apoptotic or excitotoxic stress. […] Further, it was investigated whether such differences in the protective effect of the clenbuterol enantiomers could also be observed in a paradigm of necrotic cell death induced by glutamate.

hippocampal neurons [2] = assay: Staurosporine (STS)-induced apoptosis in cultured hippocampal neurons, Hoechst 33258 nuclear staining; format: cell-based, rat; conditions: 10 μM enantiomer added before STS 200 nM; apoptotic nuclei quantified 18 h after exposure; vs STS-treated controls (FIG. 1)
Protocol: as §1
The protective effects of the clenbuterol enantiomers in cultured neurons exposed to STS (200 nM) which induced apoptosis or glutamate (500 μM) which induced ecitotoxic cell death with morphological features of necrosis. The Clenbuterol enantiomeres were added to the culture medium at a concentration of 10 μM h before the onset of apoptotic or excitotoxic stress. […]

rat uterus = conditions: Clenbuterol isomers; literature; cited from earlier work
[3] = literature, Eur J Pharmacol 117 (1985) 127-129; cited from earlier work
[4] = literature, Eur J Pharmacol 446 (2002) 25-36; cited from earlier work

Row | SMILES | number of trypan blue positive neurons (hippocampal neurons [1]; 18 h after exposure) | protection of neurons against glutamate excitotoxic insult (hippocampal neurons [1]) | STS-induced neuronal cell death (apoptotic nuclei) (hippocampal neurons [2]) | relaxant response in rat uterus (rat uterus) | activity in psychopharmacological tests (CNS-effect) [3] | effects in preclinical models of neuroprotection [4]
1 | CC(C)(C)NC[C@@H](O)c1cc(Cl)c(N)c(Cl)c1 [S-Clenbuterol] | reduced the number of trypan blue positive neurons to control levels | significantly protected the neurons against the excitotoxic insult | significantly attenuated STS-induced neuronal cell death | not involved in the effects | did not show any CNS-effect | –
2 | CC(C)(C)NC[C@H](O)c1cc(Cl)c(N)c(Cl)c1 [R-clenbuterol] | – | did not show any protective effect | did not affect STS-induced apoptosis | shows the effect | based only on the (−)-enantiomer | –
3 | CC(C)(C)NCC(O)c1cc(Cl)c(N)c(Cl)c1 (racemic) [racemic Clenbuterol, Clenbuterol] | – | – | – | – | – | positive effects
